BindingDB's records for PubMed 11454905 (Eli Lilly, 2001)
pKi: −log10 of the molar value. Residues, ends and D or L forms follow the SMILES beside them.

Target: Metabotropic glutamate receptor 3 (Rattus norvegicus, UniProt P31422)
Sequence (P31422 whole entry): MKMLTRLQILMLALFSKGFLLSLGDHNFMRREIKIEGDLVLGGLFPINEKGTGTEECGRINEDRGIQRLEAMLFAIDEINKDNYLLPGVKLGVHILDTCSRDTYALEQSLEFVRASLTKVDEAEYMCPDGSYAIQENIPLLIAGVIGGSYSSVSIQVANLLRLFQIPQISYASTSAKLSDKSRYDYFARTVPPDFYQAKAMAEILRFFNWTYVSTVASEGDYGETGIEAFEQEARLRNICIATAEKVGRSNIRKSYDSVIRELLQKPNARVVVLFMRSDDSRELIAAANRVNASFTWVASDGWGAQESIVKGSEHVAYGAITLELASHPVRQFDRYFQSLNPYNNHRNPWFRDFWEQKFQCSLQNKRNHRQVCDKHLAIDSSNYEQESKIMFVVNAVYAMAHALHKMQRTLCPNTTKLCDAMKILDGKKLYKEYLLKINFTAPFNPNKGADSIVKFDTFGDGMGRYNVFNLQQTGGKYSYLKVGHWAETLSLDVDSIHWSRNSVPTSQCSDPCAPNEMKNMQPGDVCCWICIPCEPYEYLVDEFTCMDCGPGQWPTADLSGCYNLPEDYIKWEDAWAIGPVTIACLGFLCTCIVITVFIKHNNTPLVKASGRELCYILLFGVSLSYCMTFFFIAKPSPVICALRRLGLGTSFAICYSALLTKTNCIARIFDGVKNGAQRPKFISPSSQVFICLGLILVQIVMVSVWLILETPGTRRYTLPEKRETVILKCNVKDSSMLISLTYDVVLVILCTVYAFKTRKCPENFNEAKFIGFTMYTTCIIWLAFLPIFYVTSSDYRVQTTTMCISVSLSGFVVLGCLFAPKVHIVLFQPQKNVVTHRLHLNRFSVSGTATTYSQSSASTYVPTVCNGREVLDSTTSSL

Row | Compound | pKi
1 | N[C@@H](CCP(=O)(O)O)C(=O)O | < 5.00
2 | CC(N)(C(=O)O)c1ccc(P(=O)(O)O)cc1 (configuration not stated) | < 5.00
3 | O=C(O)[C@H]1[C@H]2CN[C@H](C(=O)O)[C@H]21 | < 5.00
4 | C[C@@](N)(C(=O)O)c1ccc(C(=O)O)cc1 (racemic) | < 5.00
5 | N[C@@]1(C(=O)O)CC[C@H](C(=O)O)C1 [1S, 3R-ACPD] | < 5.00
6 | N[C@@H](Cn1oc(=O)[nH]c1=O)C(=O)O [2-amino-3-(3,5-dioxo[1,2,4]oxadiazolidin-2-yl)propionic acid] | < 5.00
7 | N[C@@]1(C(=O)O)CN[C@@H](C(=O)O)C1 [2R, 4R-APDC] | 5.56
8 | N[C@@]1(C(=O)O)CC[C@H](CC(=O)O)C1 [(1S,3S)-HOMO-ACPD] | 5.06
9 | N[C@@]1(C(=O)O)CC[C@H]2[C@H](C(=O)O)[C@H]21 [(2S,6S)-2-Amino-bicyclo[3.1.0]hexane-2,6-dicarboxylic acid] | < 5.00
10 | NC(C(=O)O)c1ccc(P(=O)(O)O)cc1 (configuration not stated) [Amino-(4-phosphono-phenyl)-acetic acid(RS-PPG)] | < 5.00
11 | N[C@H](CP(=O)(O)O)C(=O)O [CAS_23052-80-4] | < 5.00
12 | Nc1nc(O)c2ncn(COC(CO)CO)c2n1 [CAS_82410-32-0] | < 5.00
13 | NC(Cn1cnc2c(=O)[nH]c(=O)[nH]c21)(C(=O)O)C1CC1C(=O)O (configuration not stated) [CAS_5311260] | 9.10
14 | N[C@H](C(=O)O)C1[C@@H](C(=O)O)[C@@H]1C(=O)O (some centres not stated) [DCG-IV] | 7.21
15 | N[C@@H](CC(=O)O)C(=O)O [L-Aspartic acid, 2] | < 5.00
16 | N[C@H](C(=O)O)[C@H]1C[C@H]1C(=O)O [L-CCG-IV] | 6.48
17 | N[C@@H](CCC(=O)O)C(=O)O [L-Glutamic acid] | < 5.00
18 | N[C@@H](C[C@@H](CCCC(c1ccccc1)c1ccccc1)C(=O)O)C(=O)O [LY307452] | 5.70
19 | N[C@@]1(C(=O)O)CO[C@H]2[C@H](C(=O)O)[C@H]21 [LY379268] | 8.19
20 | CC(=O)N[C@@H](CC(=O)O)C(=O)N[C@@H](CCC(=O)O)C(=O)O [[3H]NAAG] (Ac-Asp-Glu-OH) | < 5.00
21 | NC(CCC(=O)O)C(=O)O (configuration not stated) [glutamic acid dianion] | 7.05
22 | O=C(O)[C@H]1CN[C@H](C(=O)O)C1 [t-PDC] | < 5.00
